Laboratory results taken from PubChem BioAssay AID248 (DTP/NCI, 2004).
“And” between values parts separate entries of the source, which are not always exact repeats. Equal entries are not always repeated. Inconclusive results and toxic doses are left out. Rule as the data show it: active = T/C of 150% or more; inactive = T/C below 125%.

Test system: L1210 leukemia ip in BDF1 mice, survival T/C
Experiment: NCI In Vivo Anticancer Drug Screen. Data for tumor model L1210 Leukemia (intraperitoneal) in B6D2F1 (BDF1) mice
Details: endpoint: mean survival time, higher = longer survival
Method in brief: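 Each compound was tested against a transplantable tumor grown in mice. The endpoint was survival, with treated animals benchmarked against vehicle controls as a simple ratio.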

[1] = dose: 100.0 mg/kg/injection, schedule: Q01DX009 (ip), vehicle: Klucel (hydroxypropylcellulose) (HPC)
[2] = dose: 100.0 mg/kg/injection, schedule: Q04DX002 (ip), vehicle: Klucel (hydroxypropylcellulose) (HPC)
[3] = dose: 200.0 mg/kg/injection, schedule: Q01DX009 (ip), vehicle: Klucel (hydroxypropylcellulose) (HPC)
[4] = dose: 200.0 mg/kg/injection, schedule: Q04DX002 (ip), vehicle: Klucel (hydroxypropylcellulose) (HPC)
[5] = dose: 400.0 mg/kg/injection, schedule: Q04DX002 (ip), vehicle: Klucel (hydroxypropylcellulose) (HPC)
[6] = dose: 100.0 mg/kg/injection, schedule: Q01DX009 (ip), vehicle: saline with Tween-80
[7] = dose: 100.0 mg/kg/injection, schedule: Q04DX003 (ip), vehicle: saline with Tween-80
[8] = dose: 200.0 mg/kg/injection, schedule: Q01DX009 (ip), vehicle: saline with Tween-80
[9] = dose: 200.0 mg/kg/injection, schedule: Q04DX003 (ip), vehicle: saline with Tween-80
[10] = dose: 400.0 mg/kg/injection, schedule: Q04DX003 (ip), vehicle: saline with Tween-80
[11] = dose: 6.25 mg/kg/injection, schedule: Q01DX009 (ip), vehicle: saline
[12] = dose: 12.5 mg/kg/injection, schedule: Q01DX009 (ip), vehicle: saline
[13] = dose: 25.0 mg/kg/injection, schedule: Q01DX009 (ip), vehicle: saline with Tween-80
[14] = dose: 25.0 mg/kg/injection, schedule: Q01DX009 (ip), vehicle: saline
[15] = dose: 100.0 mg/kg/injection, schedule: Q01DX001 (ip), vehicle: carboxymethylcellulose (CMC)
[16] = dose: 400.0 mg/kg/injection, schedule: Q01DX001 (ip), vehicle: carboxymethylcellulose (CMC)
[17] = dose: 100.0 mg/kg/injection, schedule: Q04DX002 (ip), vehicle: saline with Tween-80

Measured: T/C

C=C[C@H]1CN2CC[C@H]1C[C@@H]2[C@@H](O)c1ccnc2ccccc12
inactive: [1] 101 % of control | [2] 103 % of control | [3] 93 % of control | [4] 103 % of control | dose: 400.0 mg/kg/injection, schedule: Q01DX009 (ip), vehicle: Klucel (hydroxypropylcellulose) (HPC) 93 % of control | [5] 96 % of control

ClCC1COC(CCl)O1 (centres undefined)
inactive: dose: 55.0 mg/kg/injection, schedule: Q01DX Z (ip), vehicle: saline 101 % of control | dose: 83.0 mg/kg/injection, schedule: Q01DX Z (ip), vehicle: saline 95 % of control | dose: 125.0 mg/kg/injection, schedule: Q01DX Z (ip), vehicle: saline 97 % of control

C=CCN(CC=C)C(=S)NC(=O)c1ccccc1
inactive: [1] 110 % of control | [3] 104 % of control

CCOC(=O)C(N)CS (centres undefined)
inactive: dose: 100.0 mg/kg/injection, schedule: Q01DX001 (ip), vehicle: saline 106 % of control | dose: 200.0 mg/kg/injection, schedule: Q01DX001 (ip), vehicle: saline 97 % of control | dose: 400.0 mg/kg/injection, schedule: Q01DX001 (ip), vehicle: saline 101 % of control

N#CCCC1CCCCC1=O (centres undefined)
inactive: dose: 75.0 mg/kg/injection, schedule: Q01DX001 (ip), vehicle: other 97 % of control | [6] 94 % of control | [7] 98 % of control | dose: 150.0 mg/kg/injection, schedule: Q01DX001 (ip), vehicle: other 100 % of control | [8] 96 % of control | [9] 96 % of control | dose: 300.0 mg/kg/injection, schedule: Q01DX001 (ip), vehicle: other 100 % of control | [10] 102 % of control

O=C(CC1(Cl)C(F)(F)C(F)(F)C1(F)F)c1ccccc1
inactive: [11] 94 % of control | [12] 94 % of control | [13] 94 % of control | [14] 100 % of control

COc1cc(CN(C)C2CCCCC2)cc(OC)c1OC
inactive: [11] 103 % of control | [12] 103 % of control | [14] 100 % of control | dose: 25.0 mg/kg/injection, schedule: Q04DX003 (ip), vehicle: saline 97 % of control | dose: 50.0 mg/kg/injection, schedule: Q01DX009 (ip), vehicle: saline 94 % of control | dose: 50.0 mg/kg/injection, schedule: Q04DX003 (ip), vehicle: saline 103 % of control | dose: 100.0 mg/kg/injection, schedule: Q01DX009 (ip), vehicle: saline 90 % of control | dose: 100.0 mg/kg/injection, schedule: Q04DX003 (ip), vehicle: saline 100 % of control

O=[N+]([O-])c1ccc(O)c(/C=N\NC(=S)Nc2ccc3cn[nH]c3c2)c1
inactive: dose: 50.0 mg/kg/injection, schedule: Q01DX001 (ip), vehicle: carboxymethylcellulose (CMC) 97 % of control | [15] 103 % of control | dose: 200.0 mg/kg/injection, schedule: Q01DX001 (ip), vehicle: carboxymethylcellulose (CMC) 93 % of control | [16] 97 % of control

O=C(O)c1cccc(CCl)c1
inactive: [17] 95 % of control

O=NN(CCCl)C(=O)c1cc(Cl)cc(Cl)c1
inactive: dose: 12.5 mg/kg/injection, schedule: Q01DX009 (ip), vehicle: saline with Tween-80 115 % of control | [13] 117 % of control | dose: 50.0 mg/kg/injection, schedule: Q01DX009 (ip), vehicle: saline with Tween-80 111 % of control and 91 % of control | [6] 93 % of control | [8] 99 % of control

O=C1c2cccc3cccc(c23)C1(Br)C(Br)c1ccccc1 (centres undefined)
inactive: [17] 97 % of control | dose: 200.0 mg/kg/injection, schedule: Q04DX002 (ip), vehicle: saline with Tween-80 97 % of control | dose: 400.0 mg/kg/injection, schedule: Q04DX002 (ip), vehicle: saline with Tween-80 97 % of control

NNC(=O)CNc1ccccc1
inactive: dose: 50.0 mg/kg/injection, schedule: Q01DX001 (ip), vehicle: Klucel (hydroxypropylcellulose) (HPC) 100 % of control | dose: 100.0 mg/kg/injection, schedule: Q01DX001 (ip), vehicle: Klucel (hydroxypropylcellulose) (HPC) 110 % of control | dose: 200.0 mg/kg/injection, schedule: Q01DX001 (ip), vehicle: Klucel (hydroxypropylcellulose) (HPC) 117 % of control

c1coc(-c2cnc3ccccc3n2)c1
inactive: dose: 75.0 mg/kg/injection, schedule: Q01DX001 (ip), vehicle: carboxymethylcellulose (CMC) 109 % of control | dose: 150.0 mg/kg/injection, schedule: Q01DX001 (ip), vehicle: carboxymethylcellulose (CMC) 91 % of control

COC(=O)CSc1nc2ccccc2[nH]1
inactive: [2] 104 % of control | [4] 100 % of control | [5] 100 % of control

CN(C)/C=N\c1ncnc2c1c(C#N)cn2C1OC(CO)C(O)C1O (centres undefined)
inactive: [11] 92 % of control | dose: 12.5 mg/kg/injection, schedule: Q01DX005 (ip), vehicle: saline 109 % of control | [12] 115 % of control | dose: 25.0 mg/kg/injection, schedule: Q01DX005 (ip), vehicle: saline 101 % of control | [14] 117 % of control

O=[N+]([O-])c1ccc(C2ON2C2CCCCC2)cc1 (centres undefined)
inactive: [15] 87 % of control | [16] 108 % of control

CC(=O)Nc1ccccc1C(C)=O
inactive: [7] 92 % of control | [9] 93 % of control | [10] 93 % of control

CC(=O)Nc1ccc(NCc2cnc3nc(N)nc(N)c3n2)cc1
inactive: dose: 20.0 mg/kg/injection, schedule: Q01DX009 (ip), vehicle: Klucel (hydroxypropylcellulose) (HPC) 96 % of control | dose: 40.0 mg/kg/injection, schedule: Q01DX009 (ip), vehicle: Klucel (hydroxypropylcellulose) (HPC) 104 % of control | dose: 80.0 mg/kg/injection, schedule: Q01DX009 (ip), vehicle: Klucel (hydroxypropylcellulose) (HPC) 96 % of control

O=C(O)c1c(Br)c(Br)c(Br)c(Br)c1C(=O)Nc1ccc(Br)cc1
inactive: [1] 104 % of control | [3] 101 % of control

O=C(Nc1cccc(C2=NCCN2)c1)c1ccc(C(=O)Nc2cccc(C3=NCCN3)c2)c([N+](=O)[O-])c1
inactive: dose: 1.25 mg/kg/injection, schedule: Q01DX Z (ip), vehicle: saline 93 % of control | dose: 2.5 mg/kg/injection, schedule: Q01DX Z (ip), vehicle: saline 90 % of control | dose: 5.0 mg/kg/injection, schedule: Q01DX Z (ip), vehicle: saline 86 % of control

CCCCSc1nc2ccccc2[nH]1
inactive: dose: 100.0 mg/kg/injection, schedule: Q01DX001 (ip), vehicle: saline with Tween-80 93 % of control | [7] 93 % of control | dose: 200.0 mg/kg/injection, schedule: Q01DX001 (ip), vehicle: saline with Tween-80 104 % of control | [9] 97 % of control | dose: 400.0 mg/kg/injection, schedule: Q01DX001 (ip), vehicle: saline with Tween-80 104 % of control | [10] 100 % of control
